Tests used:
[1] = system: bacterial DNA methyltransferases; experiment: Methylation by bacterial DNA methyltransferases that require double stranded DNA; format: biochemical
Text: (§1) They are labeled Sense (S), Antisense (AS), Methylated Antisense 1 (M1) and Methylated Antisense 2 (M2). […] This property of M2 provides an approach to accurately monitoring levels of DNA methyltransferase activity in clinically obtained tissue samples that might otherwise be contaminated by bacteria, since bacterial DNA methyltransferase activity would be excluded as a component of this measurement.

murine DNA 5-C-MTase [2] = experiment: Methylation assay: methyl transfer from [methyl-3H]AdoMet to ODNs by DNA methyltransferase from Friend erythroleukemia cell nuclei; format: biochemical
Procedure: The phosphoramidite of 5-fluorodeoxycytidine (5FdC) and unmodified 5-methyl deoxycytosine (5MdC) and 5FC-containing ODNs were synthesized and purified as described in Marasco, C. J. et al., J. Org. […] 5MdC phosphoramidite is commercially available. ss ODNs were heated to 90° C. for 10 min and quickly chilled on ice immediately prior to assay. […] For ds ODNs, an equimolar mixture of complementary ODNs was heated to 90° C. for 10 min and slowly cooled to room temperature.
Preparation of Murine DNA 5-C-MTase. The DNA 5-C-MTase used in these studies was the 100,000×g supernatant of a 0.3M NaCl extract of Friend erythroleukemia cell nuclei.
Methylation Assay. Reaction mixtures (50 μl ) in 0.1M imidazole, pH 7.4/20 mM EDTA/0.5 mM dithiothreitol contained 0.5 μg of each ODN indicated, ≈0.6 units of DNA 5-C-MTase (1 unit transfers 1 pmol to A (AS)·A'Mp (M1) per min; see Table 7), and 2.8 μCi (1 Ci=37 GBq) of [methyl-^3 H]AdoMet (AdoMet=S-adenosylmethionine) (8 μM). […] For accuracy, methylation rates <5 pmol/30 min were measured in quadrupled reaction mixtures (200 μl ). After incubation for 30 min at 37° C., ODNs were processed for quantitation of radiolabel as described (20) with 25 μg of salmon sperm DNA added as carrier prior to perchloric acid precipitation.
All assays were performed in duplicate.

[3] = system: bacterial SssI methyltransferase; experiment: DNA methylase substrate activity with bacterial SssI enzyme preparation; format: biochemical
Text: as §1
RESULTS ARE AVERAGE OF 2 EXPTS. BACTERIAL SSS1 ENZYME PREPARATION. ASSAYE

murine DNA 5-C-MTase [4] = experiment: Methylation assay: methyl transfer from [methyl-3H]AdoMet to ODNs by DNA methyltransferase from Friend erythroleukemia cell nuclei; format: biochemical; conditions: Table 2; enzyme preparation from Friend leukemia cells; 1 μg oligomer; average of 2 expts; background 2691
Friend leukemia cells = experiment: Growth of Friend leukemia cells treated with phosphorothioate end capped oligomers; format: cell-based, murine; set-up: dose or concentration left out as unconfirmed; conditions: concentrations of oligomers
Procedure: Having established that specific phosphorothioate end capped ODNs retain activity against DNA methyltransferase, their biological effects were examined in intact Friend cells: the biological effects of oligomer A were compared to oligomer B which has no available substrate sites and thus cannot be an inhibitor of DNA methyltransferase, and of oligomer D with oligomer C which has no FC.
A test was conducted to determine if these oligomers affect growth or differentiation of Friend leukemia cells. If growth effects are due to the toxicity of FC released from oligomers, then oligomer A and oligomer B should have equivalent effects and oligomer C should have no effect on growth.
Oligomer C may have a minor effect if it competes with endogenous DNA for DNA methyltransferase binding in a reversible manner. If, however, growth effects are due to a generalized effect of high oligomer concentration, then all oligomers, A, B and C, should affect growth similarly.

[5] = target: T1, DNA 5-C-methyltransferase (murine, Friend erythroleukemia cells) (Mus musculus, UniProt P13864 P13864:1-1620); experiment: methylation rate; 128 in Table 10; conditions: protein: extract; tags: 0.3 M NaCl nuclear extract, 100,000 x g supernatant; single approx. 190 kDa species forming covalent complexes
Procedure: (§2) Methylation Assay. Reaction mixtures (50 µl) in 0.1M imidazole, pH 7.4/20 mM EDTA/0.5 mM dithiothreitol contained 0.5 µg of each ODN indicated, ≈0.6 units of DNA 5-C-MTase (1 unit transfers 1 pmol to A (AS)·A'M_p (M1) per min; see Table 7), and 2.8 µCi (1 Ci=37 GBq) of [methyl-^3H]AdoMet (AdoMet=S-adenosylmethionine) (8 µM). Substrate C sites are in excess in the reaction, and methyl transfer is linear for >45 min. For accuracy, methylation rates <5 pmol/30 min were measured in quadrupled reaction mixtures (200 µl). After incubation for 30 min at 37° C., ODNs were processed for quantitation of radiolabel as described (20) with 25 µg of salmon sperm DNA added as carrier prior to perchloric acid precipitation.

[6] = target: T1, DNA 5-C-methyltransferase (murine, …); experiment: methylation rate; 170 in Table 6, 130 in Table 10; conditions: protein: extract; tags: 0.3 M NaCl nuclear extract, 100,000 x g supernatant; single approx. 190 kDa species forming covalent complexes
[7] = target: T2, Hha I DNA methyltransferase (UniProt P05102 P05102:1-327); experiment: ss ODNs not substrates at 37 C
T2 sequence: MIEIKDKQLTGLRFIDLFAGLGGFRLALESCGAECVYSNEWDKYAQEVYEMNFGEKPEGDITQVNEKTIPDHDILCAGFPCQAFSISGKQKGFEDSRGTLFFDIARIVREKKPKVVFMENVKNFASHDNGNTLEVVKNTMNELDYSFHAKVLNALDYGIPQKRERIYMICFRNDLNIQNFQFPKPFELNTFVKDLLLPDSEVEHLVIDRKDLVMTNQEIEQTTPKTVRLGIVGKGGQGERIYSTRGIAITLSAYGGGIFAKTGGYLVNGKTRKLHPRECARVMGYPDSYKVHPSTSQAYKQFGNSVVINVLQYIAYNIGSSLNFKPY

[8] = target: T1, DNA 5-C-methyltransferase (murine, …); experiment: inhibition; methylation rate; 3 in Table 6; potent inhibitor; conditions: protein: extract; tags: 0.3 M NaCl nuclear extract, 100,000 x g supernatant; single approx. 190 kDa species forming covalent complexes
[9] = target: T1, DNA 5-C-methyltransferase (murine, …); experiment: methylation rate; conditions: protein: extract; tags: 0.3 M NaCl nuclear extract, 100,000 x g supernatant; single approx. 190 kDa species forming covalent complexes; potential stem-loop
[10] = target: T1, DNA 5-C-methyltransferase (murine, …); experiment: methylation rate; 150 in Table 10; conditions: protein: extract; tags: 0.3 M NaCl nuclear extract, 100,000 x g supernatant; single approx. 190 kDa species forming covalent complexes
Procedure: as §2

T1 sequence (P13864 whole entry, one chain of several): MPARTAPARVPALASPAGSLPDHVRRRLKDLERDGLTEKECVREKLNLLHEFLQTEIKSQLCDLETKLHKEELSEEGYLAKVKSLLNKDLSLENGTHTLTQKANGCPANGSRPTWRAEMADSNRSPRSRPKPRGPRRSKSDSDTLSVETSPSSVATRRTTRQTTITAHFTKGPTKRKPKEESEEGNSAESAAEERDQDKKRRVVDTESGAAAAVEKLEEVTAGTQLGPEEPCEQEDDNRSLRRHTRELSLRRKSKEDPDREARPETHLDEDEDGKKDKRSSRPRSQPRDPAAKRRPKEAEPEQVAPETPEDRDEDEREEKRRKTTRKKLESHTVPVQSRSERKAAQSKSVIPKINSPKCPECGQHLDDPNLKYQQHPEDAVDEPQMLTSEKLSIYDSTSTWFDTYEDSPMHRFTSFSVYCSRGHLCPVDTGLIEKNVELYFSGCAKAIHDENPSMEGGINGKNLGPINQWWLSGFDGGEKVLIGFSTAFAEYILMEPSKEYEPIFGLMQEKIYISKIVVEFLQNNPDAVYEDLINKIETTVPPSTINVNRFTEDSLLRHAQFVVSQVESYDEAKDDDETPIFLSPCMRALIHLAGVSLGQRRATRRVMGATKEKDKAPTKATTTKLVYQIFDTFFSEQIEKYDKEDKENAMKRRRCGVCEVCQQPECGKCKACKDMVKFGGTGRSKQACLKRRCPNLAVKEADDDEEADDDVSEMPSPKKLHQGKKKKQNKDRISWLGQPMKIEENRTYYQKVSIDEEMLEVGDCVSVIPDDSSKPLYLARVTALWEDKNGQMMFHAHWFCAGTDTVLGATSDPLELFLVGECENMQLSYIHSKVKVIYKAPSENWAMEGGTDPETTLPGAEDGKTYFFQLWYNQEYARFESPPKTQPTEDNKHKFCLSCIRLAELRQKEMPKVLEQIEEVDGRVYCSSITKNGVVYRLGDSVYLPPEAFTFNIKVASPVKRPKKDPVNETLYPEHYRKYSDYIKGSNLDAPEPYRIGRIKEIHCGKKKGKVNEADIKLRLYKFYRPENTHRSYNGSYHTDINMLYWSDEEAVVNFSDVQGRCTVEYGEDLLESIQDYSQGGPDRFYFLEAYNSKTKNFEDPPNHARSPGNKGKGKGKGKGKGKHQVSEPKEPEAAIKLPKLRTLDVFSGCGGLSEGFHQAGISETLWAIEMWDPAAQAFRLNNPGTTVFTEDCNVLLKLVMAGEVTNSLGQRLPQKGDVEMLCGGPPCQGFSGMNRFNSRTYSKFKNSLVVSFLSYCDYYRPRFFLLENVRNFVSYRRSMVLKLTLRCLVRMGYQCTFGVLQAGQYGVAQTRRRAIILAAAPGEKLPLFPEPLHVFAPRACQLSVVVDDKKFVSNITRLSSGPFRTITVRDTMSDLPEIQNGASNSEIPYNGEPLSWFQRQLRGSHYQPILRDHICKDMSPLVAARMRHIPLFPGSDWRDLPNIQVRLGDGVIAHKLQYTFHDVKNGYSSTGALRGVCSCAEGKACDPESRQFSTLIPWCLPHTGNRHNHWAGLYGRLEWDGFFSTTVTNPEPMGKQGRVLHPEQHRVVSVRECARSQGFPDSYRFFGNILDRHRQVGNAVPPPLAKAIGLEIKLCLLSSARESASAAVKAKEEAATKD

5' ATTGCGNATTNCGGATNCGCGATC 3' (5-methylcytosine at 7, 11, 17, further chemistry not given here) [M2, AS with 5-methylcytosine (N) at 7, 11, 17 (non-CpG sites)]
methylation by most bacterial DNA methyltransferases (in words) [1]: not methylated | substrate activity for mammalian DNA methyltransferase (in words) (murine DNA 5-C-MTase [2]): exceptional substrate activity | DNA METHYLASE (FL) SUBSTRATE ACTIVITY, ACTIVITY (CPM) (murine DNA 5-C-MTase [2]; Table 4, single and double stranded constructs, average of 2 expts, background 1813): 157027 CPM | RATE (rate of methylation relative to A) (murine DNA 5-C-MTase [2]; Table 9, ss ODNs with 5MeC substituted for C at the sites given): 130 | RATE (rate of methylation relative to A) (murine DNA 5-C-MTase [2]; Table 10, ss ODNs with 5 mC and 5 FC substitutions): 128 | substrate activity for bacterial SssI methyltransferase (in words) [3]: only moderate activity as a substrate | DNA METHYLASE SUBSTRATE ACTIVITY, ACTIVITY (CPM) ([3]; Table 3, bacterial SssI enzyme preparation, 0.25 μg oligomer, average of 2 expts, background 1351): 51047 CPM | DNA METHYLASE SUBSTRATE ACTIVITY, ACTIVITY (CPM) (murine DNA 5-C-MTase [4]): 882284 CPM

ATTGCGNATTCCGGATCCGCGATC (phosphorothioate end caps, 5-methylcytosine 7, further chemistry not given here) [Oligomer C, phosphorothioate end capped ASM7]
inhibition of growth of Friend leukemia cells (in words) (Friend leukemia cells): no appreciable effect

ATTGCGNATTCCGGATCNGCGATC (phosphorothioate end caps, 5-MeC 7, 5-FC 18, further chemistry not given here) [Oligomer A, phosphorothioate end capped ASM7F18]
inhibition of methylation by incorporation of FC in position 18 (murine DNA 5-C-MTase [2]; oligomer A compared with capped ASM7, cell free enzyme assay): 97% | inhibition of growth of Friend leukemia cells (in words) (Friend leukemia cells): more potent that B

B1: M2 (AMx) (ssDNA)
DNA: ATTGCGCATTCCGGATCCGCGATC
modifications: 5mC at 7,11,17 [5mC at 7,11,17]
binding signal [5]: 130 relative to A

B2: ASM7 (ssDNA)
DNA: ATTGCGCATTCCGGATCCGCGATC
modifications: 5mC at 7 [5mC at 7]
binding signal [6]: 140 relative to A

B3: S (A') (ssDNA)
DNA: GATCGCGGATCCGGAATGCGCAAT
binding result [7]: no binding

B4: ASM7 F18 (ssDNA)
DNA: ATTGCGCATTCCGGATCCGCGATC
modifications: 5mC at 7; 5-fluoro-C at 18 [5mC at 7; 5-fluoro-C at 18]
binding signal [8]: 3.2 relative to A

B5: structure 6 ODN (ssDNA)
DNA: ATGACGCACCTCGTTGACGCGCTA
modifications: 5mC at 7
binding signal [9]: > 300 relative to A

B6: ASM5 (ssDNA)
DNA: ATTGCGCATTCCGGATCCGCGATC
modifications: 5mC at 5
binding signal [10]: 175 relative to A
